“And” between values parts separate entries of the source, which are not always exact repeats. Identical values can stand only once. Like-named read-outs stand apart in the source and are kept apart here.
Experiments:
recombinant human ERα = molecular target: T1, recombinant human ERα (Homo sapiens, UniProt P03372); assay: ERα binding assay: competition of [3H]E2 binding by competing estrogens; conditions: for RBAα % (relative binding affinity for ERα, of E2): calculated against E2 = 100; for RBAα/RBAβ: ratio of relative binding affinities ERα over ERβ; for RBA for ERα, % of E1: relative to E1
T1 construct: purchased PanVera Corporation (Madison, Wis.); host or cells: baculovirus-mediated expression system
T1 sequence (P03372 1-595): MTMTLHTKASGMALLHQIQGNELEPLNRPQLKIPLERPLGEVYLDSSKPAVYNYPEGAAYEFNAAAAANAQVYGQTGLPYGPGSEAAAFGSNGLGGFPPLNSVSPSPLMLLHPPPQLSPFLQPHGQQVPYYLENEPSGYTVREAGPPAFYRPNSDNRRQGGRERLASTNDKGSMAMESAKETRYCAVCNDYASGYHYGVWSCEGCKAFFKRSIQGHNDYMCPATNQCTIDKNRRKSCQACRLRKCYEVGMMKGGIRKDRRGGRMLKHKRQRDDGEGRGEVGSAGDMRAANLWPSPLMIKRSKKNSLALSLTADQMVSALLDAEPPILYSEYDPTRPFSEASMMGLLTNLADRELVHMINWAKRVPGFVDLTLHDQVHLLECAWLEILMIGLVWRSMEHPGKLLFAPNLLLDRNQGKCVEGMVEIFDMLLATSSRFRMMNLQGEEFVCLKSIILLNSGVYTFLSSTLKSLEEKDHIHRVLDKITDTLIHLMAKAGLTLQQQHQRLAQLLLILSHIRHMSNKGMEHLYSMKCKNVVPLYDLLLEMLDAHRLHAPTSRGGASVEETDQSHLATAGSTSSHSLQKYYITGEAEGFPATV
From the text: (§1) The recombinant human ERα and ERβ proteins and bovine serum albumin (BSA) were obtained from PanVera Corporation (Madison, Wis.). According to the supplier, the recombinant human ERα and ERβ were produced in a baculovirus-mediated expression system, and they were soluble and functionally active, with post-translational modifications similar to those found in mammalian cells. See Reid et al., Human estrogen receptor-α: Regulation by synthesis, modification and degradation, Cell. Mol. Life.
(§2) The following buffer solutions were used in the ER binding assays, and they were prepared beforehand and stored at 4° C. The binding buffer consisted of 10% glycerol, 2 mM dithiothreitol, 1 mg/mL BSA and 10 mM Tris-HCl at pH 7.5. The ERα washing buffer contained 40 mM Tris-HCl and 100 mM KCl (pH 7.4), but the ERG washing buffer contained only 40 mM Tris-HCl (adjusted to pH 7.4). The 50% hydroxylapatite slurry was prepared first by vigorously mixing 10 g hydroxylapatite with 60 mL of the Tris-HCl solution (50 mM, pH 7.4). Hydroxylapatite was then allowed to settle for 20 minutes at room temperature, and the supernatant was decanted. The above procedures were repeated 10 times, and afterwards hydroxylapatite was kept in the 50 mM Tris-HCl solution overnight at 4° C. Hydroxylapatite slurry was then adjusted to an approximate final concentration of 50% (v/v) using the same Tris-HCl solution and stored at 4° C., and the slurry was stable for up to several months.
(§3) Note that all of the estrogens were initially dissolved in pure ethanol to a stock concentration of 1 mM, and then further diluted to 100 μM with 20% aqueous ethanol. […] Immediately before the addition of the ERα or ERβ protein, it was diluted in the binding buffer and mixed gently with repetitive pipettings. […] The incubation mixture was then mixed gently and thoroughly with repetitive pipettings. […] The binding mixture was incubated at room temperature for two hours. At the end of the incubation, 100 μL of the hydroxylapatite slurry was added to each tube and the tubes were incubated on ice for 15 minutes with 3 times of brief vortexing. An aliquot (1 mL) of the appropriate washing buffer was added, mixed, and centrifuged at 10,000 g for five minutes, and the supernatants were discarded. This wash step was repeated twice. Hydroxylapatite pellets were then resuspended in 200 μL ethanol (followed by another rinse with 200 μL ethanol), and then the content was transferred to scintillation vials (containing 4 mL of the scintillation fluid) for measurement of ^3H-radioactivity with a liquid scintillation counter (Packard Tri-CARB 2900 TR; Downers Grove, Ill.).
(§4) To calculate the specific binding (pmol/mL) of the human ERα or ERβ protein at each concentration point, the following equation was used: […]
(§5) When a lower radioligand concentration is used, the corresponding IC50 value will also be relatively lower, but when the radioligand concentration increases, the corresponding IC50 value will also increase. […] Since the RBA value is a parameter that is independent of the radioligand concentration used, we thus have placed more emphasis on the RBA values instead of the absolute IC50 values in interpreting the physiological meanings of the data from in vitro receptor competition assays.

recombinant human ERβ = molecular target: T2, recombinant human ERβ (Homo sapiens, UniProt Q92731); assay: ERβ binding assay: competition of [3H]E2 binding by competing estrogens; conditions: for RBAβ (%) (relative binding affinity for ERβ, of E2): calculated against E2 = 100; for binding affinity for ERβ (in words): concentrations up to 1000 nM
T2 construct: purchased PanVera Corporation (Madison, Wis.); host or cells: baculovirus-mediated expression system
T2 sequence (Q92731 whole entry): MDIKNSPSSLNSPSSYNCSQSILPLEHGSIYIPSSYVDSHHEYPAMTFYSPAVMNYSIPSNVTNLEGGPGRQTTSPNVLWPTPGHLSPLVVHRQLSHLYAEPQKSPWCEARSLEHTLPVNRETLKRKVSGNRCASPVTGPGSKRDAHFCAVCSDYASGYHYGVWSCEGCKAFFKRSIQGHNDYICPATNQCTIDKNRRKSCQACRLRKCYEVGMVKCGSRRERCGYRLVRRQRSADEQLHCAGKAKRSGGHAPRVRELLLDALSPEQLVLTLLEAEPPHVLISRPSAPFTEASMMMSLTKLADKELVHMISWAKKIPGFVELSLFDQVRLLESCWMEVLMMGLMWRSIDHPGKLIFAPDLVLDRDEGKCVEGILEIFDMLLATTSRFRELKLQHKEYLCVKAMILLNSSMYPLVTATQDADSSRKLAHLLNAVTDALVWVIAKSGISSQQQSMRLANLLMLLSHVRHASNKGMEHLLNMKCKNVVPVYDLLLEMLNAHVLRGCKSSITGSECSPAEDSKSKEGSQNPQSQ
From the text: as §1, §2, §3, §4, §5

[1] = [3H]E2 10 nM, competitor up to 1000 nM, read-out: ERβ IC50

Compound	RBAα % (relative binding affinity for ERα, of E2) (recombinant human ERα) [%]	RBAα/RBAβ (recombinant human ERα)	IC50 (recombinant human ERα; read-out: ERα IC50) [nM]	RBAβ (%) (relative binding affinity for ERβ, of E2) (recombinant human ERβ)	IC50 (recombinant human ERβ; read-out: ERβ IC50) [nM]	also measured
C[C@]12CC[C@@H]3c4ccc(O)cc4[C@@H](O)C[C@H]3[C@@H]1CC[C@@H]2O [6α-OH-E2, 6α-Hydroxyestradiol]	6	1.5	200	4%	251	RBAα/RBAβ (recombinant human ERα; listed as 6α-hydroxyestradiol): about 1.5
C[C@]12CC[C@@H]3c4cc(O)c(O)cc4CC[C@H]3[C@@H]1CC[C@@H]2O [2-OH-E2, 2-Hydroxyestradiol]	22	0.6		35%		IC50 (recombinant human ERα): 50.1 nM; IC50 (recombinant human ERβ): 25.1 nM
CC[C@H](c1ccc(O)cc1)[C@@H](CC)c1ccc(O)cc1 [Hexestrol, reference compound]	31	0.5	36.3	60%	18.6	
CC12CCC3c4cc(Br)c(O)cc4CCC3C1CCC2O (stereo not shown) [2-Br-E2, 2-Bromoestradiol]	4	10	281	< 0.5% and 0.4%	2510	RBAα/RBAβ (recombinant human ERα; listed as 2-bromoestradiol): about 10
COc1cc2c(cc1O)CC[C@@H]1[C@@H]2CC[C@]2(C)[C@@H](O)CC[C@@H]12 [2-MeO-E2, 2-Methoxyestradiol]	2	2		1%		IC50 (recombinant human ERα; [3H]E2 10 nM, competitor up to 1000 nM, read-out: ERα IC50): 501 nM; RBAα/RBAβ (recombinant human ERα; listed as 2-methoxyestradiol): about 2; IC50 (recombinant human ERβ; [1]): 631 nM
C[C@]12CC[C@@H]3c4cc(O)c(O)cc4CC[C@H]3[C@@H]1C[C@@H](O)[C@@H]2O [2-OH-E3, 2-Hydroxyestriol]	2	2	501	1%	794	RBAα/RBAβ (recombinant human ERα; listed as 2-hydroxyestriol): about 2
COc1cc2c(cc1O)[C@H]1CC[C@]3(C)C(=O)CC[C@H]3[C@@H]1CC2 [2-OH-3-MeO-E1, 2-Hydroxyestrone 3-methyl ether]			> 1000		> 1000	binding affinity for ERα (in words) (recombinant human ERα; concentrations up to 1000 nM): did not have appreciable binding affinity; binding affinity for ERβ (in words) (recombinant human ERβ): did not have appreciable binding affinity
C[C@]12CCc3c(ccc4cc(O)ccc34)[C@@H]1CCC2=O [D-Equilenin]	2	0.3		7%		IC50 (recombinant human ERα): 562 nM; ERα RBA (recombinant human ERα; Table 4, Premarin components): 2; Ratio (ERα RBA / ERβ RBA) (recombinant human ERα; Table 4, Premarin components): 0.3; RBA for ERα, % of E1 (recombinant human ERα): 20%; IC50 (recombinant human ERβ): 126 nM; ERβ RBA (recombinant human ERβ; Table 4, Premarin components): 7; RBA for ERβ, % of E1 (recombinant human ERβ; relative to E1): 355%; binding affinity for ERβ, fold higher than E1 (recombinant human ERβ; relative to E1): more than 3 fold
CC12CCC3c4cc(O)c(O)cc4CCC3C1CCC2=O (stereo not shown) [2-OH-E1, 2-Hydroxyestrone]	4	10	316	0.4%	2000	preference of binding affinity for ERα over ERβ (recombinant human ERα; ERα over ERβ): about ten-fold; RBAα/RBAβ (recombinant human ERα; listed as 2-hydroxyestrone): about 10
C/C=C(/C(=C/C)c1ccc(O)cc1)c1ccc(O)cc1 [Dienestrol, reference compound]	37	0.7	30.2	56%	19.9	
COc1c(O)ccc2c1CCC1C2CCC2(C)C(=O)CCC12 (stereo not shown) [4-MeO-E1, 4-Methoxyestrone]						IC50 (recombinant human ERα): > 1000 nM; binding affinity for ERα (in words) (recombinant human ERα): did not have appreciable binding affinity; IC50 (recombinant human ERβ): > 1000 nM; binding affinity for ERβ (in words) (recombinant human ERβ): did not have appreciable binding affinity
C[C@]12CC[C@@H]3c4ccc(O)cc4CC[C@H]3[C@@H]1C[C@@H](O)[C@@H]2O [16α-OH-E2 (E3), 16α-Hydroxyestradiol (Estriol), reference compound]					25.1	preference of binding affinity for ERβ over ERα (recombinant human ERβ; listed as E3): more than five-fold
C[C@]12CC[C@@H]3c4ccc(O)cc4C(=O)C[C@H]3[C@@H]1CC[C@H]2O [6-Keto-E2-17α, 6-Ketoestradiol-17α]	2	2		1%		IC50 (recombinant human ERα): 562 nM; RBAα/RBAβ (recombinant human ERα; listed as 6-ketoestradiol-17α): about 2; RBA for ERα, % of E2-17α (recombinant human ERα; relative to E2-17α): 9%; IC50 (recombinant human ERβ): 1120 nM; RBA for ERβ, % of E2-17α (recombinant human ERβ; relative to E2-17α): 25%
C[C@]12CC[C@@H]3c4ccc(O)cc4C[C@@H](CCCCCCOCc4ccccc4)[C@H]3[C@@H]1CC[C@@H]2O [E2-7α-(CH2)6OC6H5, 7α-(6-Benzyloxyhexanyl)-17β-estradiol]						IC50 (recombinant human ERβ; [1]): 63.1 nM
CC12CCC3c4ccc(O)cc4CCC3C1CC(=O)C2=O (stereo not shown) [16-Keto-E1, 16-Ketoestrone]	2	0.2	631	10%	89.1	RBA for ERα, % of E1 (recombinant human ERα): 18%; RBA for ERβ, % of E1 (recombinant human ERβ; relative to E1): 501%; binding affinity for ERβ, fold higher than E1 (recombinant human ERβ; relative to E1): five-fold higher; relative preference for ERβ over ERα, times higher than E1 (recombinant human ERβ; relative to E1): approximately 25 times
C[C@]12CC[C@@H]3c4ccc(O)cc4CC[C@H]3[C@@H]1C[C@H](O)[C@H]2O [16β-OH-E2-17α, 16β-Hydroxyestradiol-17α (16,17-Epiestriol)]					70.8	preference of binding affinity for ERβ over ERα (recombinant human ERβ): 18 fold
C[C@]12CC[C@@H]3c4ccc(OS(=O)(=O)O)cc4CC[C@H]3[C@@H]1CCC2=O [E1-3-sulfate, Estrone 3-sulfate]					> 1000	binding affinity for ERβ (in words) (recombinant human ERβ): basically devoid of appreciable binding affinity; binding affinity for ERβ (in words) (recombinant human ERβ; listed as estrone-3-sulfate): virtually no estrogen receptor binding affinity
O=C(CC(=O)c1ccccc1)c1ccccc1 [DBM, Dibenzoylmethane, reference compound]						IC50 (recombinant human ERβ): > 1000 nM; binding affinity for ERβ (in words) (recombinant human ERβ): weak overall binding affinity
C[C@]12CC[C@@H]3c4ccc(O)cc4CC[C@H]3[C@@H]1C[C@@H](O)[C@H]2O [16α-OH-E2-17α, 16α-Hydroxyestradiol-17α (16,17-Epiestriol)]					11.2	binding affinity for ERβ, times higher than E2-17α (recombinant human ERβ; relative to E2-17α): 16 times
C[C@]12CCc3c(ccc4cc(O)ccc34)[C@@H]1CC[C@@H]2O [17β-Dihydroequilenin]						IC50 (recombinant human ERβ; [1]): 8.9 nM
CC(=O)OC1C[C@]2(C)[C@@H](O)CC[C@H]2[C@@H]2CCc3cc(O)ccc3[C@@H]12 (stereo partly drawn) [11-Acetate-E2, 17β-Estradiol 11-acetate]						IC50 (recombinant human ERβ; [1]): 19.9 nM
C#CC1(O)CCC2C3CCc4cc(O)ccc4C3CCC21C (stereo not drawn) [17α-EE2, 17α-Ethynylestradiol, reference compound]						binding affinity for ERβ (in words) (recombinant human ERβ): only about half of that of E2

Source: US20080293683A1, “Hormone Replacement Therapy” (University of Kansas Medical Center, priority 2007, published 2008)
